Laboratory results as given in PMC7617869, “Molecular glues that inhibit deubiquitylase activity and inflammatory signaling” (Nature Structural & Molecular Biology, 2025).
Several values for one entry are separate records, joined by “and”; a condition that tells them apart may be missing. Identical values can stand only once. Blank lines part the entries; values can stand above or below the compound they belong to.

How the values were obtained:
Format in all cases: biochemical
[1] = target: T1, BRISC (Homo sapiens, UniProt P46736+Q15018+Q9NXR7); test: Compound library screening and hit validation (IQF diubiquitin, 1 nM BRISC); conditions: for BRISC, normalised activity (Ext. 1a): two replicate columns
T1 construct: made in house; host or cells: Spodoptera frugiperda (Sf9) insect cells, MultiBac
Method: Assays were performed in 384-well black flat-bottom low-flange plates (Corning, 35373) in buffer containing 50 mM HEPES–NaOH pH 7.0, 100 mM NaCl, 1 mg ml^−1 BSA, 1 mM DTT and 0.03% v/v Brij-35. Then, 10 μl of twofold concentrated enzyme stock was dispensed, followed by transfer of 200 nl of compounds (1 mM stock) using a 384-pin tool and a 15-min incubation at room temperature. Then, 10 μl of twofold concentrated substrate stock was added and the reaction was monitored by measuring fluorescence intensity (excitation, 540 nm; emission, 580 nm) after 20-min incubation at room temperature and ~50% of substrate was consumed. Orthogonal assays for verification of H20 and P12 hit compounds using USP2 (100 nM) and trypsin (125 nM) were performed in identical conditions.

[2] = target: T2, panel of 48 purified DUBs (Homo sapiens, UniProt Q5VV17); test: DUB selectivity profiling (DUBprofiler, ubiquitin–rhodamine(110)–glycine); conditions: DUB OTUD1; screening concentration 5 μM; 5 µM
T2 construct: purchased Ubiquigent (DUBprofiler service)
Method: (§1) Biochemical selectivity profiling (DUBprofiler) was performed by Ubiquigent with a panel of 48 purified DUBs and ubiquitin–rhodamine(110)–glycine as a fluorescent substrate.

[3] = target: T3, panel of 48 purified DUBs (Homo sapiens, UniProt Q8NB14); test: as above; conditions: DUB USP38; screening concentration 5 μM; 5 µM
T3 construct: purchased Ubiquigent (DUBprofiler service)
Method: as §1

[4] = target: T4, panel of 48 purified DUBs (Homo sapiens, UniProt Q9UHP3); test: as above; conditions: DUB USP25; screening concentration 5 μM; 5 µM
T4 construct: purchased Ubiquigent (DUBprofiler service)
Method: as §1

[5] = target: T5, panel of 48 purified DUBs (Homo sapiens, UniProt Q96G74); test: as above; conditions: DUB OTUD5(p177S); screening concentration 5 μM; 5 µM
T5 construct: purchased Ubiquigent (DUBprofiler service)
Method: as §1

[6] = target: T6, panel of 48 purified DUBs (Homo sapiens, UniProt Q93009); test: as above; conditions: DUB USP7; screening concentration 5 μM; 5 µM
T6 construct: purchased Ubiquigent (DUBprofiler service)
Method: as §1

[7] = target: T7, panel of 48 purified DUBs (Homo sapiens, UniProt Q8TAC2); test: as above; conditions: DUB JOSD2; screening concentration 5 μM; 5 µM
T7 construct: purchased Ubiquigent (DUBprofiler service)
Method: as §1

[8] = target: T8, panel of 48 purified DUBs (Homo sapiens, UniProt Q70CQ3); test: as above; conditions: DUB USP30; screening concentration 5 μM
T8 construct: purchased Ubiquigent (DUBprofiler service)
Method: as §1

[9] = target: T9, panel of 48 purified DUBs (Homo sapiens, UniProt Q9Y4E8); test: as above; conditions: DUB USP15; screening concentration 5 μM; 5 µM
T9 construct: purchased Ubiquigent (DUBprofiler service)
Method: as §1

[10] = target: T10, panel of 48 purified DUBs (Homo sapiens, UniProt P62068); test: as above; conditions: DUB USP46/UAF1/WDR20; screening concentration 5 μM; 5 µM
T10 construct: purchased Ubiquigent (DUBprofiler service)
Method: as §1

[11] = target: T11, panel of 48 purified DUBs (Homo sapiens, UniProt O75317); test: as above; conditions: DUB USP12/UAF1/WDR20; screening concentration 5 μM
T11 construct: purchased Ubiquigent (DUBprofiler service)
Method: as §1

[12] = target: T12, panel of 48 purified DUBs (Homo sapiens, UniProt A6NNY8); test: as above; conditions: DUB USP27X; screening concentration 5 μM; 5 µM
T12 construct: purchased Ubiquigent (DUBprofiler service)
Method: as §1

[13] = target: T13, panel of 48 purified DUBs (Homo sapiens, UniProt Q93008); test: as above; conditions: DUB USP9X; screening concentration 5 μM; 5 µM
T13 construct: purchased Ubiquigent (DUBprofiler service)
Method: as §1

[14] = target: BRISC BRCC36 L169W (Homo sapiens, UniProt P46736+Q15018+Q9NXR7, L169W); test: BRISC mutant IQF assay: BRCC36 L169W
Method: IQF assays were performed in DUB reaction buffer containing 50 mM HEPES–NaOH pH 7.0, 100 mM NaCl, 0.1 mg ml^−1 BSA, 1 mM DTT and 0.03% v/v Brij-35. […] The final concentration of BRISC WT, all BRISC mutants, HsBRISCΔLoop, MmBRISC and DrBRISCΔNΔC was 1 nM. Other enzymes were tested at the following concentrations: 5 nM ARISC (FL), 10 nM CfBRISCΔNΔC, 250 nM AMSH* (ref. [43]), 500 nM USP2 and 1 μM trypsin (Sigma, 9002-07-7). For Michaelis–Menten experiments, 1 nM BRISC with 0–1 μM IQF K63-linked diubiquitin substrate was used. Michaelis–Menten analyses and Lineweaver–Burk plots were calculated using GraphPad Prism (version 9.0).
To assess enzymatic activity, BRISC complexes were diluted to concentrations between 1 nM and 50 nM. […] Then, 20-μl enzyme reactions were carried out in 384-well black flat-bottom low-flange plates (Corning, 35373). DUB activity was measured using IQF K63-linked diubiquitin (LifeSensors, DU6303) at 50 nM. Cleaved diubiquitin was monitored by measuring fluorescence intensity (excitation, 544 nm; emission, 575 nm; dichroic mirror, 560 nm). Fluorescence intensity was measured every minute for 30 min at 30 °C. Fluorescence intensity units were plotted against time to generate a linear reaction progress curve, where the initial velocity (V0) corresponds to the gradient of the curve (typically achieved within 15 min). IC50 values were calculated using the GraphPad Prism (version 9.0) built-in dose–response equation for inhibitor concentration versus response (variable slope).

T4 sequence (Q9UHP3 whole entry): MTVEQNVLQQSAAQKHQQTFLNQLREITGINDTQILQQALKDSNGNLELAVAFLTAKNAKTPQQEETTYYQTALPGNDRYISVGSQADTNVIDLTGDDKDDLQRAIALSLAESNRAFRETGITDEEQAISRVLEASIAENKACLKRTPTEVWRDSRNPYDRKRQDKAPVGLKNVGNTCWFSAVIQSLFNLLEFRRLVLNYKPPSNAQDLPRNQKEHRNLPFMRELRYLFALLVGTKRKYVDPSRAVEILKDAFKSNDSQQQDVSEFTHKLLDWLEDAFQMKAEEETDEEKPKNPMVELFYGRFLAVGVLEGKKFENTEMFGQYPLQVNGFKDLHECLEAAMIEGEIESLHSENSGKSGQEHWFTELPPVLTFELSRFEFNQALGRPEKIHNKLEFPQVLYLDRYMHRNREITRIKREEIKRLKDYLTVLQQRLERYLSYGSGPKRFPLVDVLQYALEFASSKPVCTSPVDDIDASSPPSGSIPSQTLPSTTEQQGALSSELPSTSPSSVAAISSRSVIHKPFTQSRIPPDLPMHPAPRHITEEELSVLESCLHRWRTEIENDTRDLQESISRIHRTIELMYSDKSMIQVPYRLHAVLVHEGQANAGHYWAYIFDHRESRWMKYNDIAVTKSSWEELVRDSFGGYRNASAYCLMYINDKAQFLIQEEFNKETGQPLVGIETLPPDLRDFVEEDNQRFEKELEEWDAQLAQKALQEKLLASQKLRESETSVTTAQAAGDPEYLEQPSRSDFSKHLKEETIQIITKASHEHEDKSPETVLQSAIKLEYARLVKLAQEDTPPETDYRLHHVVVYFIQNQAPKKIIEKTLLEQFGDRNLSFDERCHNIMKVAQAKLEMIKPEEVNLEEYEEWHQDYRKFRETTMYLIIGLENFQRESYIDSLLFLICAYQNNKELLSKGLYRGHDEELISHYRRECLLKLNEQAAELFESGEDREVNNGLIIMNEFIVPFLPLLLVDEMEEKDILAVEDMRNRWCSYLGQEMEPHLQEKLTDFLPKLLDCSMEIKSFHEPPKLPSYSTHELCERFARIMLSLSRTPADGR
T7 sequence (Q8TAC2 whole entry): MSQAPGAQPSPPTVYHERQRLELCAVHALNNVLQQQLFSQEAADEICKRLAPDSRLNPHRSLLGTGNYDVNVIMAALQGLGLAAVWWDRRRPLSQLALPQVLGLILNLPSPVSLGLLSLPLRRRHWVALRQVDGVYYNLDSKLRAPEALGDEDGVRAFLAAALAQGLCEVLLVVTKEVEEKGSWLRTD
T9 sequence (Q9Y4E8 whole entry): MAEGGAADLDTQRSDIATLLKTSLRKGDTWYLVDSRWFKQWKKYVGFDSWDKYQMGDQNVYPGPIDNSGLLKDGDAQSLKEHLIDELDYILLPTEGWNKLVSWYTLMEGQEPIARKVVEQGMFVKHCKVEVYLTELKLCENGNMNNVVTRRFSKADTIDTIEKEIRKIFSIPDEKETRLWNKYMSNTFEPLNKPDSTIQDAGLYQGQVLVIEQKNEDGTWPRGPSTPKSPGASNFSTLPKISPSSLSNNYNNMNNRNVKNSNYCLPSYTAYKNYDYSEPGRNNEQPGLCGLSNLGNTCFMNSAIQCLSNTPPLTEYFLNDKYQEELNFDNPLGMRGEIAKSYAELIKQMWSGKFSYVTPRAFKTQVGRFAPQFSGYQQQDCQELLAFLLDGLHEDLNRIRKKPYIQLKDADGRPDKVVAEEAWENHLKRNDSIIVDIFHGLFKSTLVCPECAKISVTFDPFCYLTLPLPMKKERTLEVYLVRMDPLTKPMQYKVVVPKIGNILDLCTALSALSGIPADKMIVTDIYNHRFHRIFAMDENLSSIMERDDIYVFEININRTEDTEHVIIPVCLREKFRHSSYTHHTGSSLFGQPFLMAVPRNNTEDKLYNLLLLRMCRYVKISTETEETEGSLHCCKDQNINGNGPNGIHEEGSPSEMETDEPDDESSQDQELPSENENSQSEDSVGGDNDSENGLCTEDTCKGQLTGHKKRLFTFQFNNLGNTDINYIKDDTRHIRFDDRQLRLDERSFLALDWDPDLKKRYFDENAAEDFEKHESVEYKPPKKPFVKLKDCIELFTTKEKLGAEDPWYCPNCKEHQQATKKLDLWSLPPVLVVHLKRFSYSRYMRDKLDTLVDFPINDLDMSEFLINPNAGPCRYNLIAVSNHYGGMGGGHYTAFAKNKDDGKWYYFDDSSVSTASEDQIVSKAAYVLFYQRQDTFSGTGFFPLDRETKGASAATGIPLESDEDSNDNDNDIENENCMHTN
T12 sequence (A6NNY8 whole entry): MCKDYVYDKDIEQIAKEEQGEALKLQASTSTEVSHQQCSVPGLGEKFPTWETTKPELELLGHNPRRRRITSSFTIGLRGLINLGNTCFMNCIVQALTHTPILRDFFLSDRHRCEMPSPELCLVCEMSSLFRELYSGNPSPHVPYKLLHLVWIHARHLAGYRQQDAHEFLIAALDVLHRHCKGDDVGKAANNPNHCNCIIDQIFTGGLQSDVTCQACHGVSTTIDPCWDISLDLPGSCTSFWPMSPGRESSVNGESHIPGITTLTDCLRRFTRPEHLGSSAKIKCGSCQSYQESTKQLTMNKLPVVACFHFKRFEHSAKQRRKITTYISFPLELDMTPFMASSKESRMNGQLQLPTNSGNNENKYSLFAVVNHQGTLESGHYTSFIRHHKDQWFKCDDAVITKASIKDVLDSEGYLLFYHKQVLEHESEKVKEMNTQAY
T3 sequence (Q8NB14 whole entry): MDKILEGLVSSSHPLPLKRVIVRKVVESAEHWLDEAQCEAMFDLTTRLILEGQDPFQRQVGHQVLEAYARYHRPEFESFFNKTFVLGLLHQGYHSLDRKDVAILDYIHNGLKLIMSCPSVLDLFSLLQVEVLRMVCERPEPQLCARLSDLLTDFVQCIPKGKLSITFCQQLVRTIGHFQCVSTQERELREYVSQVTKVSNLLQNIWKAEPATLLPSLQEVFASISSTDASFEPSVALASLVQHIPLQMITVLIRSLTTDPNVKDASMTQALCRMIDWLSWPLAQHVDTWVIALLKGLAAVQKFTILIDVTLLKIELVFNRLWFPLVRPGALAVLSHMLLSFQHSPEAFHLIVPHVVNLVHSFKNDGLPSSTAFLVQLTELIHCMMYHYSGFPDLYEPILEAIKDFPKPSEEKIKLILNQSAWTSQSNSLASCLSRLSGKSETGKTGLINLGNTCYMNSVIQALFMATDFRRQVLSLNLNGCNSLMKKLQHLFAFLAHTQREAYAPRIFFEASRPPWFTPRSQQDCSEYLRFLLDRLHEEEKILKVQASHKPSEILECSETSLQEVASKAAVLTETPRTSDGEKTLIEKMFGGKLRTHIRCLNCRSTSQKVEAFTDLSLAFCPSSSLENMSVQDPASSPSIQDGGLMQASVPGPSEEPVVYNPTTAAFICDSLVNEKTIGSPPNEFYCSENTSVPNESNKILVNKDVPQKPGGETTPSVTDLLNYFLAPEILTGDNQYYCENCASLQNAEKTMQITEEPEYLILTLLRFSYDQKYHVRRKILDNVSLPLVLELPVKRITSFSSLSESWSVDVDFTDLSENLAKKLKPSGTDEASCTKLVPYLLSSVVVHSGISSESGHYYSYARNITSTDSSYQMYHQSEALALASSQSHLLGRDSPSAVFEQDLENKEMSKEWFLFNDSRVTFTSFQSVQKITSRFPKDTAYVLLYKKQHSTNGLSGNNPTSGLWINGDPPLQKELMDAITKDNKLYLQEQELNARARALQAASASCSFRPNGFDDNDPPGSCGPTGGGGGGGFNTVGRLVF
T2 sequence (Q5VV17 whole entry): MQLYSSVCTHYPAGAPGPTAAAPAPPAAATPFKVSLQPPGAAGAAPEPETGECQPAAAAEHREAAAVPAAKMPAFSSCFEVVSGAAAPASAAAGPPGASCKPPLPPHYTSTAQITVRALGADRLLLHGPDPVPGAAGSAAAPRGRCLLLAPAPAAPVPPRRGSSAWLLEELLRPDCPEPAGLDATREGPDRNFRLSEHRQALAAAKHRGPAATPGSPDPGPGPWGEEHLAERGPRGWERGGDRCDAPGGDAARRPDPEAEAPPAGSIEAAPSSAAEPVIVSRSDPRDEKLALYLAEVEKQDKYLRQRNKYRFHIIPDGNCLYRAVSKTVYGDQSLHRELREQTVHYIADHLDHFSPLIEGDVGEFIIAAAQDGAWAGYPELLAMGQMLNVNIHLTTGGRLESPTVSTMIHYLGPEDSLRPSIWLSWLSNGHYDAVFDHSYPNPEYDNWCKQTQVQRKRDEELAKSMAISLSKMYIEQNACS
T10 sequence (P62068 whole entry): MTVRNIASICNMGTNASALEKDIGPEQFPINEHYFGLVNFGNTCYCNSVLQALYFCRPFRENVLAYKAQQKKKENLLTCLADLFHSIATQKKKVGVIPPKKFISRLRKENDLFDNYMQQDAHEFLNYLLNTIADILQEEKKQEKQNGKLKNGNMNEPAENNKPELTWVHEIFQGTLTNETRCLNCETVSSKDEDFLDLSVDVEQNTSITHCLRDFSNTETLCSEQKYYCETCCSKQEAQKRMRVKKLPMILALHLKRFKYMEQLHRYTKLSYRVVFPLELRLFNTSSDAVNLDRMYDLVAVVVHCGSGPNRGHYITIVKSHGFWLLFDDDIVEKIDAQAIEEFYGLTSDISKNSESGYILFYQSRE
T11 sequence (O75317 whole entry): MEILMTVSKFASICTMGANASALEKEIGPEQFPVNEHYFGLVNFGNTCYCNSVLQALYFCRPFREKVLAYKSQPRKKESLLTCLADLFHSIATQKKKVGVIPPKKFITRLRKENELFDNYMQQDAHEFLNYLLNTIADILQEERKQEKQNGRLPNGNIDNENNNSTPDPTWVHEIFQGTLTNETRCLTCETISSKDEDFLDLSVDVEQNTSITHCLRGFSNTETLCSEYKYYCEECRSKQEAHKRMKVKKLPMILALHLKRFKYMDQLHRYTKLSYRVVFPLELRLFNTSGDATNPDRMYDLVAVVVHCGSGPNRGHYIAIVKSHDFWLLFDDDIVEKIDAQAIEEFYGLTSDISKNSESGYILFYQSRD

inhibition of BRISC, hit validation dose response ([1]; BRISC 1 nM): selective inhibition | BRISC, normalised activity (Ext. 1a) ([1]; log [compound (μM)] 0.1938, listed as H20): 0.7394 and 0.8570 | BRISC, normalised activity (Ext. 1a) ([1]; log [compound (μM)] 0.4949, listed as H20): 0.6725 and 0.7111 | BRISC, normalised activity (Ext. 1a) ([1]; log [compound (μM)] 0.7959, listed as H20): 0.4328 and 0.4373 | BRISC, normalised activity (Ext. 1a) ([1]; log [compound (μM)] 1.0969, listed as H20): 0.3601 and 0.3685 | BRISC, normalised activity (Ext. 1a) ([1]; log [compound (μM)] 1.3979, listed as H20): 0.2929 and 0.2927 | BRISC, normalised activity (Ext. 1a) ([1]; log [compound (μM)] 1.6990, listed as H20): 0.2472 and 0.2252 | BRISC, normalised activity (Ext. 1a) ([1]; log [compound (μM)] 2.0000, listed as H20): 0.2296 and 0.2103 | BRISC, normalised activity (Ext. 1a) ([1]; log [compound (μM)] 2.3010, listed as H20): 0.2316 and 0.1815 | BRISC, normalised activity (Ext. 1a) ([1]; log [compound (μM)] -0.1072, listed as H20): 0.9797 and 1.0152 | BRISC, normalised activity (Ext. 1a) ([1]; log [compound (μM)] -0.4082, listed as H20): 1.0306 and 1.0024 | BRISC, normalised activity (Ext. 1a) ([1]; log [compound (μM)] -0.7093, listed as H20): 1.0136 and 1.0571 | BRISC, normalised activity (Ext. 1a) ([1]; log [compound (μM)] -1.7100, normalisation point): 1.0000 | normalised V0, Mean ([1]; log[compound (μM)] 0.1931): 0.7989 | normalised V0, Mean ([1]; log[compound (μM)] 0.4942): 0.6361 | normalised V0, Mean ([1]; log[compound (μM)] 0.7959): 0.4437 | normalised V0, Mean ([1]; log[compound (μM)] 1.0969): 0.3773 | normalised V0, Mean ([1]; log[compound (μM)] 1.3979): 0.3064 | normalised V0, Mean ([1]; log[compound (μM)] 1.6990): 0.2332 | normalised V0, Mean ([1]; log[compound (μM)] 2.0000): 0.2301 | normalised V0, Mean ([1]; log[compound (μM)] 2.3010): 0.1610 | normalised V0, Mean ([1]; log[compound (μM)] -0.1079): 0.9141 | normalised V0, Mean ([1]; log[compound (μM)] -0.4089): 0.9318 | normalised V0, Mean ([1]; log[compound (μM)] -0.7212): 0.9518 | normalised V0, Mean ([1]; log[compound (μM)] -1.7212, normalisation point): 1.0000 | Activity (% control) [2]: 100 % control and 102 % control | Activity (% control) [3]: 94 % control and 92 % control | Activity (% control) [4]: 93 % control and 94 % control | Activity (% control) [5]: 96 % control and 99 % control | Activity (% control) [6]: 116 % control and 121 % control | Activity (% control) [7]: 101 % control and 102 % control | Activity (% control) [8]: 89 % control | Activity (% control) [9]: 111 % control and 115 % control | Activity (% control) [10]: 95 % control and 99 % control | Activity (% control) [11]: 96 % control | Activity (% control) [12]: 102 % control and 97 % control | Activity (% control) [13]: 103 % control and 98 % control
SMILES: O=C(NC1CCNCC1)c1nn(C(=O)c2c(Cl)cccc2Cl)cc1NC(=O)c1c(Cl)cccc1Cl [JMS-175-2]

IC50 [14]: 91 µM | reduction of inhibition over wild-type complex [14]: > 100 fold | remaining activity at 0.0035 µM ([14]; FX-171-C 0.0035 μM, read-out: Normalised V0): 94% | remaining activity at 0.035 µM ([14]; FX-171-C 0.035 μM, read-out: Normalised V0): 91.9% | remaining activity at 0.35 µM ([14]; FX-171-C 0.35 μM, read-out: Normalised V0): 94% | remaining activity at 3.1 µM ([14]; FX-171-C 3.1 μM, read-out: Normalised V0): 93.5% | remaining activity at 6.25 µM ([14]; FX-171-C 6.25 μM, read-out: Normalised V0): 90.3% | remaining activity at 12.5 µM ([14]; FX-171-C 12.5 μM, read-out: Normalised V0): 89.8% | remaining activity at 25 µM ([14]; FX-171-C 25 μM, read-out: Normalised V0): 93.8% | remaining activity at 50 µM ([14]; FX-171-C 50 μM, read-out: Normalised V0): 84.8%
SMILES: O=C(NC1C2CNCC21)c1nn(C(=O)c2c(Cl)cccc2Cl)cc1NC(=O)c1c(Cl)cccc1Cl (centres unmarked) [FX-171-C]
